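Cells were grown in 96-well plates and exposed to each compound for 48 hours at five concentrations; endpoints were interpolated linearly between bracketing concentrations, or set to the highest concentration if not reached. Definition used: TGI = concentration required for complete inhibition of growth.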
Key:
Experiment in all cases: growth of human tumour cells (NCI), 48 h
[1] = tested on: 786-0 renal
[2] = tested on: A498 renal
[3] = tested on: A549 NSCLC
[4] = tested on: ACHN renal
[5] = tested on: BT-549 breast
[6] = tested on: CAKI-1 renal
[7] = tested on: CCRF-CEM leukemia
[8] = tested on: COLO 205 colon
[9] = tested on: EKVX NSCLC
[10] = tested on: HCT-116 colon
[11] = tested on: HCT-15 colon
[12] = tested on: HL-60(TB) leukemia
[13] = tested on: HOP-62 NSCLC
[14] = tested on: HOP-92 NSCLC
[15] = tested on: HS 578T breast
[16] = tested on: HT29 colon
[17] = tested on: IGROV1 ovarian
[18] = tested on: K-562 leukemia
[19] = tested on: KM12 colon
[20] = tested on: LOX IMVI melanoma
[21] = tested on: M14 melanoma
[22] = tested on: MALME-3M melanoma
[23] = tested on: MCF7 breast
[24] = tested on: MDA-MB-231 breast
[25] = tested on: MDA-MB-435
[26] = tested on: MDA-N
[27] = tested on: MOLT-4 leukemia
[28] = tested on: NCI-H226 lung
[29] = tested on: NCI-H23 lung
[30] = tested on: NCI-H460 lung
[31] = tested on: NCI-H522 lung
[32] = tested on: NCI/ADR-RES ovarian
[33] = tested on: OVCAR-3 ovarian
[34] = tested on: OVCAR-4 ovarian
[35] = tested on: OVCAR-5 ovarian
[36] = tested on: OVCAR-8 ovarian
[37] = tested on: PC-3 prostate
[38] = tested on: RPMI-8226 leukemia
[39] = tested on: RXF 393 renal
[40] = tested on: SF-268 CNS
[41] = tested on: SF-295 CNS
[42] = tested on: SF-539 CNS
[43] = tested on: SK-MEL-2 melanoma
[44] = tested on: SK-MEL-28 melanoma
[45] = tested on: SK-MEL-5 melanoma
[46] = tested on: SK-OV-3 ovarian
[47] = tested on: SNB-19 CNS
[48] = tested on: SNB-75 CNS
[49] = tested on: SR leukemia
[50] = tested on: SW-620 colon
[51] = tested on: T-47D breast
[52] = tested on: TK-10 renal
[53] = tested on: U251 CNS
[54] = tested on: UACC-257 melanoma
[55] = tested on: UACC-62 melanoma
[56] = tested on: UO-31 renal
[57] = tested on: DU-145 prostate
[58] = tested on: HCC-2998 colon
[59] = tested on: SN12C renal

Measured: TGI

CC1CC(c2ccccc2)Nc2nc3ccccc3n21 (stereo unspecified)
not listed: [57] | [58] | [59]
> 100 µM: all other assays above

CC[C@@]1(C[C@H]2C[C@@]3(C(=O)OC)c4[nH]c5ccccc5c4CCN3C2=S)COC2(CCCCC2)O1
39 µM: [45]
41.6 µM: [5]
67.8 µM: [19]
87.7 µM: [52]
36.2 µM: [50]
not listed: [24] | [28] | [38] | [44]
> 100 µM: all other assays above
